For this test, the target named is T1, Itk (Homo sapiens, UniProt Q08881).
T1 sequence (Q08881 1-620): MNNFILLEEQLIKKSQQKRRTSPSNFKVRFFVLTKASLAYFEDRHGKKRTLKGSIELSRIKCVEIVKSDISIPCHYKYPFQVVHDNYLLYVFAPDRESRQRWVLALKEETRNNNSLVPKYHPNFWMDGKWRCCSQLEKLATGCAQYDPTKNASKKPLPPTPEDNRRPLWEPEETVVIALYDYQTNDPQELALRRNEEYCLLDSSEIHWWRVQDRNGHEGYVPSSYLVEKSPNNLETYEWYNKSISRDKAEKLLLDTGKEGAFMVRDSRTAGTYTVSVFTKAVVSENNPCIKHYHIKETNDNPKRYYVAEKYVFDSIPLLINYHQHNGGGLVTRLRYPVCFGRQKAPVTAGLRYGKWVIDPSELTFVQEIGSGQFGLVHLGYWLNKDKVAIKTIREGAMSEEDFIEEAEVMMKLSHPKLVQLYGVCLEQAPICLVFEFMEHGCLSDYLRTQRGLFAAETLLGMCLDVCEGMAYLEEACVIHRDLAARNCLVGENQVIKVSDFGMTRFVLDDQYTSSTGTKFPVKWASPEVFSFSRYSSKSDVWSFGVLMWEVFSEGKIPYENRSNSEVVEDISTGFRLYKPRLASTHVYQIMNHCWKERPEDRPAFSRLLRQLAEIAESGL
Description: Itk inhibition assay: spectrophotometric coupled enzyme (Method C). It is filed as biochemical. The conditions noted are these: 100 μM ATP, read-out: Ki in the standard coupled enzyme assay (Method C). As for the experimental part:
The compounds of the present invention were evaluated as inhibitors of human Itk kinase using either a radioactivity-based, spectrophotometric or alphascreen assay.
Compounds were screened for their ability to inhibit Itk using a standard coupled enzyme assay (Fox et al., Protein Sci., (1998) 7, 2249).
Assays were carried out in a mixture of 20 mM MOPS (pH 7.0), 10 mM MgCl2, 0.1% BSA, 1 mM DTT, 2.5 mM phosphoenolpyruvate, 300 μM NADH, 30 μg/ml pyruvate kinase and 10 μg/ml lactate dehydrogenase. Final substrate concentrations in the assay were 100 μM ATP (Sigma Chemicals) and 3 μM peptide (Biotinylated SAM68 Δ332-443). Assays were carried out at 25° C. and in the presence of 10 nM Itk.
An assay stock buffer solution was prepared containing all of the reagents listed above, with the exception of ATP and the test compound of interest. 60 μl of the stock solution was placed in a 96 well plate followed by addition of 2 μl of DMSO stock containing serial dilutions of the test compound (typically starting from a final concentration of 15 μM). The plate was preincubated for 10 minutes at 25° C. and the reaction initiated by addition of 5 μl of ATP. Initial reaction rates were determined with a Molecular Devices SpectraMax Plus plate reader over a 10 minute time course. IC50 and Ki data were calculated from non-linear regression analysis using the Prism software package (GraphPad Prism version 3.0cx for Macintosh, GraphPad Software, San Diego Calif., USA).

The values that follow come from US7700609B2, “Compositions useful as inhibitors of protein kinases” (Vertex Pharmaceuticals Incorporated, priority 2003, dated 2010).

Structures are written as SMILES.

Consider `CC(C)(C)c1cccc(Nc2ncc3ccc4sc(C(=O)N5CCOCC5)cc4c3n2)c1` [Compound V-55], for which the inhibition constant (Ki) (usually a measure of affinity in units of concentration, obtained from inhibition or displacement) was less than 1000 nM.
With `CN1CCN(C(=O)c2cc3c(ccc4cnc(Nc5cccc(C(C)(C)C)c5)nc43)s2)CC1` [Compound V-56] the figure was less than 1000 nM; with `O=C(c1cc2c(ccc3cnc(Nc4cccc(-c5ccccc5)c4)nc32)s1)N1CCOCC1` [Compound V-58], less than 1000 nM; with `CN1CCN(C(=O)c2cc3c(ccc4cnc(Nc5cccc(-c6ccccc6)c5)nc43)s2)CC1` [Compound V-59], less than 1000 nM.
With `CC(C)(C)OC(=O)NC1CCN(C(=O)c2cc3c(ccc4cnc(Nc5cccc(-c6ccccc6)c5)nc43)s2)C1` (centres unmarked) [Compound V-60] the figure was less than 1000 nM.
The result for `O=C(c1cc2c(ccc3cnc(Nc4cccc(F)c4)nc32)s1)N1CCOCC1` [Compound V-61] reads less than 1000 nM; that for `CC(C)(C)OC(=O)NC1CCN(C(=O)c2cc3c(ccc4cnc(Nc5cccc(F)c5)nc43)s2)C1` (centres unmarked) [Compound V-63], less than 1000 nM; that for `O=C(CCN1CCCCC1)Nc1cccc(Nc2ncc3ccc4sc(C(=O)N5CCOCC5)cc4c3n2)c1` [Compound V-67], less than 1000 nM.
Regarding `CC(=O)Nc1cccc(Nc2ncc3ccc4sc(C(=O)N5CCOCC5)cc4c3n2)c1` [Compound V-68], the Ki is less than 1000 nM.
Consider `O=C(CCN1CCOCC1)Nc1cccc(Nc2ncc3ccc4sc(C(=O)N5CCOCC5)cc4c3n2)c1` [Compound V-69], for which the Ki was less than 1000 nM.
The result for `CN1CCN(CCC(=O)Nc2cccc(Nc3ncc4ccc5sc(C(=O)N6CCOCC6)cc5c4n3)c2)CC1` [Compound V-70] reads less than 1000 nM; that for `CN(C)CCC(=O)Nc1cccc(Nc2ncc3ccc4sc(C(=O)N5CCOCC5)cc4c3n2)c1` [Compound V-71], less than 1000 nM; that for `CC(C)(C)c1cccc(Nc2ncc3ccc4sc(C(=O)N5CCC(N)C5)cc4c3n2)c1` (centres unmarked) [Compound V-72], less than 1000 nM.
The result for `NC1CCN(C(=O)c2cc3c(ccc4cnc(Nc5cccc(-c6ccccc6)c5)nc43)s2)C1` (centres unmarked) [Compound V-73] reads less than 1000 nM; that for `NC1CCN(C(=O)c2cc3c(ccc4cnc(Nc5cccc(F)c5)nc43)s2)C1` (centres unmarked) [Compound V-74], less than 1000 nM; that for `COCCNCCC(=O)Nc1cccc(Nc2ncc3ccc4sc(C(=O)N5CCOCC5)cc4c3n2)c1` [Compound V-76], less than 1000 nM.
With `COCCCNCCC(=O)Nc1cccc(Nc2ncc3ccc4sc(C(=O)N5CCOCC5)cc4c3n2)c1` [Compound V-77] the figure was less than 1000 nM; with `CC1CC(C)CN(CCC(=O)Nc2cccc(Nc3ncc4ccc5sc(C(=O)N6CCOCC6)cc5c4n3)c2)C1` (centres unmarked) [Compound V-78], less than 1000 nM.
Consider `CC(C)(C)c1cccc(Nc2ncc3ccc4sc(C(=O)N5CCNCC5)cc4c3n2)c1` [Compound V-79], for which the Ki is less than 1000 nM.
The result for `O=C(c1cc2c(ccc3cnc(Nc4cccc(-c5ccccc5)c4)nc32)s1)N1CCNCC1` [Compound V-80] reads less than 1000 nM.
With `CC(C)c1cccc(Nc2ncc3ccc4sc(C(=O)N5CCNCC5)cc4c3n2)c1` [Compound V-81] the figure was less than 1000 nM.
With `CC(C)c1cccc(Nc2ncc3ccc4sc(C(=O)N5CCC(N)C5)cc4c3n2)c1` (centres unmarked) [Compound V-82] the figure was less than 1000 nM; with `CN1CCN(C(=O)c2cc3c(ccc4cnc(Nc5cccc(Oc6ccccc6)c5)nc43)s2)CC1` [Compound V-83], less than 1000 nM; with `O=C(c1cc2c(ccc3cnc(Nc4cccc(Oc5ccccc5)c4)nc32)s1)N1CCNCC1` [Compound V-84], less than 1000 nM.
Consider `NC1CCN(C(=O)c2cc3c(ccc4cnc(Nc5cccc(Oc6ccccc6)c5)nc43)s2)C1` (centres unmarked) [Compound V-85], for which the Ki was less than 1000 nM.
The result for `CN1CCN(C(=O)c2cc3c(ccc4cnc(Nc5cccc(Cc6ccccc6)c5)nc43)s2)CC1` [Compound V-86] reads less than 1000 nM; that for `O=C(c1cc2c(ccc3cnc(Nc4cccc(Cc5ccccc5)c4)nc32)s1)N1CCNCC1` [Compound V-87], less than 1000 nM.
On to `NC1CCN(C(=O)c2cc3c(ccc4cnc(Nc5cccc(Cc6ccccc6)c5)nc43)s2)C1` (centres unmarked) [Compound V-88], for which the Ki was less than 1000 nM.
With `O=C(c1cc2c(ccc3cnc(Nc4cccc(Br)c4)nc32)s1)N1CCNCC1` [Compound V-89] the figure was less than 1000 nM; with `Cc1ccccc1-c1cccc(Nc2ncc3ccc4sc(C(=O)N5CCNCC5)cc4c3n2)c1` [Compound V-90], less than 1000 nM.
As for `COc1ccccc1-c1cccc(Nc2ncc3ccc4sc(C(=O)N5CCNCC5)cc4c3n2)c1` [Compound V-91], the Ki is less than 1000 nM.
The result for `Cc1cccc(C)c1-c1cccc(Nc2ncc3ccc4sc(C(=O)N5CCNCC5)cc4c3n2)c1` [Compound V-92] reads less than 1000 nM; that for `O=C(c1cc2c(ccc3cnc(Nc4cccc(-c5cccnc5)c4)nc32)s1)N1CCNCC1` [Compound V-94], less than 1000 nM; that for `Cc1ccsc1-c1cccc(Nc2ncc3ccc4sc(C(=O)N5CCNCC5)cc4c3n2)c1` [Compound V-95], less than 1000 nM.
The result for `Cc1cscc1-c1cccc(Nc2ncc3ccc4sc(C(=O)N5CCNCC5)cc4c3n2)c1` [Compound V-96] reads less than 1000 nM.
With `O=C(c1cc2c(ccc3cnc(Nc4cccc(-c5ccsc5Cl)c4)nc32)s1)N1CCNCC1` [Compound V-97] the figure was less than 1000 nM; with `O=C(c1cc2c(ccc3cnc(Nc4ccc(N5CCOCC5)cc4)nc32)s1)N1CCNCC1` [Compound V-98], less than 1000 nM.
For the compound `CS(=O)(=O)c1cccc(Nc2ncc3ccc4sc(C(=O)N5CCNCC5)cc4c3n2)c1` [Compound V-100], the inhibition constant Ki was less than 1000 nM.
The result for `CS(=O)(=O)c1cccc(Nc2ncc3ccc4sc(C(=O)N5CCC(N)C5)cc4c3n2)c1` (centres unmarked) [Compound V-101] reads less than 1000 nM; that for `CC(C)Oc1cccc(Nc2ncc3ccc4sc(C(=O)N5CCNCC5)cc4c3n2)c1` [Compound V-102], less than 1000 nM.
Regarding `CC(C)Oc1cccc(Nc2ncc3ccc4sc(C(=O)N5CCC(N)C5)cc4c3n2)c1` (centres unmarked) [Compound V-103], the Ki was less than 1000 nM.
The result for `CN(C)C(=O)c1cc2c(ccc3cnc(Nc4cccc(C(C)(C)C)c4)nc32)s1` [Compound V-104] reads less than 1000 nM.
With `CC(=O)N1CCN(C(=O)c2cc3c(ccc4cnc(Nc5cccc(C(C)(C)C)c5)nc43)s2)CC1` [Compound V-105] the figure was less than 1000 nM; with `CC(=O)N1CCCN(C(=O)c2cc3c(ccc4cnc(Nc5cccc(C(C)(C)C)c5)nc43)s2)CC1` [Compound V-106], less than 1000 nM; with `CC(C)(C)c1cccc(Nc2ncc3ccc4sc(C(=O)NCC5CCNCC5)cc4c3n2)c1` [Compound V-107], less than 1000 nM.
The result for `CC(C)(C)c1cccc(Nc2ncc3ccc4sc(C(=O)NCC5CCNC5)cc4c3n2)c1` (centres unmarked) [Compound V-108] reads less than 1000 nM.
On to `CC(C)(C)c1cccc(Nc2ncc3ccc4sc(C(=O)N5CCCNCC5)cc4c3n2)c1` [Compound V-109], for which the Ki was less than 1000 nM.
Turning to `CC(C)(C)c1cccc(Nc2ncc3ccc4sc(C(=O)N5CC[C@H](N)C5)cc4c3n2)c1` [Compound V-110], the Ki was less than 1000 nM.
The result for `CC(C)(C)c1cccc(Nc2ncc3ccc4sc(C(=O)N5CC[C@@H](N)C5)cc4c3n2)c1` [Compound V-111] reads less than 1000 nM.
The result for `O=C(c1cc2c(ccc3cnc(Nc4cccc(N5CCOCC5)c4)nc32)s1)N1CCNCC1` [Compound V-112] reads less than 1000 nM; that for `O=C(c1cc2c(ccc3cnc(Nc4cccc(N5CCNCC5)c4)nc32)s1)N1CCNCC1` [Compound V-113], less than 1000 nM; that for `CN1CCN(c2cccc(Nc3ncc4ccc5sc(C(=O)N6CCNCC6)cc5c4n3)c2)CC1` [Compound V-114], less than 1000 nM.
The result for `O=C(c1cc2c(ccc3cnc(Nc4ccc(N5CCNCC5)cc4)nc32)s1)N1CCNCC1` [Compound V-115] reads less than 1000 nM.
`O=C(c1cc2c(ccc3cnc(Nc4ccncc4)nc32)s1)N1CCNCC1` [Compound V-116]: the inhibitory constant (Ki) is less than 1000 nM.
As to `O=C(c1cc2c(ccc3cnc(Nc4cccnc4)nc32)s1)N1CCNCC1` [Compound V-117], the Ki was less than 1000 nM.
With `CC(=O)N1CCC(CNC(=O)c2cc3c(ccc4cnc(Nc5cccc(C(C)(C)C)c5)nc43)s2)CC1` [Compound V-118] the figure was less than 1000 nM.
